Reference: patent publication US7235588B2, “Method for reducing hypertension and heart failure” (The Research Foundation of State University of New York, priority 2001, dated 2007)

Assays:
[1] = system: hearts subjected to ischemia/reperfusion; details: cited from earlier work
angiotensinogen mRNA = test: Angiotensinogen mRNA in hearts subjected to ischemia/reperfusion (primer extension assay); design: species or system rat; details: 30 min ischemia and 120 min reperfusion
Experimental: Ischemia was induced by a modified Langendorf-reperfusion method in rat hearts. Hearts from adult male rats were randomly divided into 4 groups and subjected to ischemia/reperfusion. In the ischemic group, hearts were perfused with Krebs-Henseleit buffer for 60 minutes, followed by 30 minutes of global ischemia. In the ischemic/reperfused group, hearts were perfused for 60 minutes, followed by 30 minutes of global ischemia and 120 minutes of reperfusion. Control group hearts were perfused for the same lengths of time.
Rat hearts subjected to ischemia/reperfusion were tested to determine whether activation of the renin-angiotensin system, as reflected by an increase in angiotensinogen mRNA, occurs in ischemic injury. The level of angiotensinogen mRNA was analyzed by primer extension assay using gene-specific DNA probes. A DNA primer spanning the complementary sequence of the rat angiotensinogen cDNA between nucleotides 302 and 279 (5′-[…]-3′) SEQ ID NO: 1 was end-labeled and used to evaluate the expression of angiotensinogen mRNA in total RNA isolated from the rat heart. The primer extension protocol was performed according to instructions provided by the supplier (Progema). Rat GAPDH cDNA specific primer was used as control. There was a marked increase in mRNA level after 30 minutes of ischemia and 120 minutes of reperfusion (FIG. 5A). […]

[2] = system: St-domain/STAT binding activity; test: Electrophoretic gel mobility-shift assay of St-domain/STAT binding in heart nuclear extracts; design: species or system rat; details: hearts, 30 min ischemia/120 min reperfusion
Text: Nuclear extracts were examined in hearts subjected to global ischemia to determine whether there is enhanced STAT binding activity to the St domain of the angiotensinogen promoter. The nuclear heart extracts were examined by the electrophoretic gel mobility-shift assay that exployed the use of the chemically synthesized oligonucleotide sequence of the St domain. The St-domain DNA probe for protein binding was a double-stranded oligonucleotide containing the sequence 5′-GGGTtcCTGGAAGGG-3′ SEQ. ID NO: 2, and complementary strand 5′-CCCTTCCAGgaACCC-3′ SEQ. ID NO: 3, respectively. These probes were end-labeled by polynucleotide kinase and [γ-^32P]ATP. Binding reaction mixture containing 0.5 ng of labeled DNA (1,000 cpm), 2 μg of poly(dI-C), and 1-12 μg of protein in buffer containing 20 mM Hepes, 3% glycerol, 1.5 mM MgCl2, 1 mM DTT, 2 mM EDTA and 50 mM KCl, pH 7.5 was allowed to incubate at 4° C. for 30 min. The reactions were analyzed by electrophoresis on 8% polyacrylanide gel in 0.375× TBE ([…] Tris borate, pH 8.7 and 1.0 mM EDTA). After electrophoresis, the gels were dried and subjected to autoradiography. […] (FIG. 5B). The activation of STATs and the consequent binding to the St-domain in the angiotensinogen promoter accounts for the increase in transcription of angiotensinogen mRNA. […]

In the case of `N#C/C(=C\c1ccc(O)c(O)c1)C(=O)NCCCCc1ccccc1` [Tyrphostin AG556], the “cardioprotection / myocardial damage due to ischemia” value [1] is listed as “reduces myocardial damage due to ischemia”.
In the case of `CCCCc1nc(Cl)c(CO)n1Cc1ccc(-c2ccccc2-c2nn[nH]n2)cc1` [losartan], the “angiotensinogen mRNA level” value (angiotensinogen mRNA) is reported as “reduced it almost entirely to the level of the control sample” and the “St-domain/STAT binding activity (STAT/DNA complex formation)” value [2] is reported as “almost entirely abolished”.
